Values quoted from earlier work as cited in paper PMC10443619 (ACS chemical biology, 2023).

What was measured:
[1] = system: tau; conditions: compared with YM-01
[2] = system: tau
[3] = system: tau; conditions: compared with MKT-077
[4] = not given; remark: listed apart in the source

Row | Substance | potency to prevent cellular tau accumulation [1] | total tau in organotypic brain slices ([2]; rTg4510 mice) | half-life (t1/2) [min] | potency to prevent tau accumulation in HeLaC3 cells [3] | blood-brain permeability [4] | pathogenic tau in ex vivo brain slices ([2]; transgenic rTg4510 mice)
1 | JG-98 | greater potency to prevent cellular tau accumulation than YM-01 | reduced total tau | 37 |  |  | 
2 | YM-01 |  |  |  | enhanced the potency to prevent tau accumulation | lacked detectable blood-brain permeability | reduced pathogenic tau
